Assay results taken from paper PMC10788941, “Solubilizer Tag Effect on PD-L1/Inhibitor Binding Properties for m-Terphenyl Derivatives” (ACS Medicinal Chemistry Letters, 2023).

How the values were obtained:
[1] = biological target: T1, PD-1/PD-L1 complex (hPD-1, hPD-L1) (Homo sapiens, UniProt Q9NZQ7); assay: HTRF assay of PD-1/PD-L1 complex disruption (Cis-Bio kit); format: binding; settings: disruption of PD-1/PD-L1 complex, n = 2
T1 construct: purchased Cis-Bio
From the text: 4.3. Homogenous Time-Resolved Fluorescence
HTRF (Homogeneous Time Resolved Fluorescence) is a widely used technology for homogenous analyte measurement, particularly in high-throughput screening for drug target studies.
This technology combines fluorescence resonance energy transfer (FRET) with tim e-resolved measurement. In TR-FRET assays, a signal is generated when a donor and an acceptor molecule are in proximity (so-called FRET distance), transfer energy through FRET. Both fluorophores are attached to the monoclonal antibodies that are then specifically detecting particular tags on target proteins.
The commercially available Cis-Bio assay kit was used to perform the HTRF assay. Following the standard protocol, the measurement was carried out at a 20 µL final volume with a 5 nM concentration of hPD-1 and 50 nM concentration of hPD-L1 in the final formulation. Separate dilution […]
compounds. Analyte and detection reagents (anti-analyte conjugated donor and acceptor conjugated […]
plate was left for 1 h of incubation and it was read on an HTRF certified microplate reader Tecan Spark
20M. Output data were subjected to background subtraction on negative control (no PD-1), and normalization in correlation to the positive control (no inhibitor) and averaged. Resulting data points were then fitted with Hill’s equation to generate IC50 using Mathematica 12. […]

[2] = biological target: T2, PD-1/PD-L1 immune checkpoint (Homo sapiens, UniProt Q9NZQ7); assay: cell-based PD-1/PD-L1 immune checkpoint blockade (ICB) assay, Jurkat-ECs with CHO/TCRAct/PD-L1 cells, luciferase readout; settings: for activation of Jurkat-ECs (fold induction): relative to DMSO-treated cells; for dose-dependent activation of Jurkat-ECs and toxicity: different concentrations, Figure S1
T2 construct: host or cells: CHO/TCRAct/PD-L1 cells (PD-L1); Jurkat-ECs (PD-1)
Procedure: 4.4. PD-1/PD-L1 immune checkpoint blockade (ICB) assay
For the in vitro analysis of the bioactivity of the molecules an Immune Checkpoint Blockade assay was performed 4 CHO/TCRAct/PD -L1 cells (Promega), overexpressing an artificial TCR - activator construct and PD -L1, were seeded on 96 -well white plates at the density of 10 000 cells/well.
The next day, the cells were overlaid with the effector Jurkat T cells (Jurkat -ECs, Promega, 20 000 cells/well), overexpressing PD -1 and containing construct assuring an NFAT -induced expression of luciferase, either in the presence of the indicated concentrations of the compounds with DMSO -only as a control (the concentration of DMSO was kept constant at 0.1%) or durvalumab (Selleckchem), as a positive control, with untreated cells as controls. Activation of the Jurkat -ECs, reflected by luciferase activity, was monitored by luminescence measurements after 6 h of incubation (37°C, 5%CO 2), and […]
20 min of additional incubation with the Bio-GloTM Assay reagent (Promega) at room temperature.
The luminescence was read on the Spark microplate reader (Tecan). The data is presented as fold induction of the luminescence signal relative to either untreated (for durvalumab) or DMSO-treated (for compounds) cells. Data points represent mean ± SD values from duplicates. […]
HCl, 0.25 mM oxidized glutathione, and 0.25 mM reduced glutathione. After the refolding step, the protein was dialyzed 3 times against buffer containing 10 mM Tris-HCl pH 8.0 and 20 mM NaCl. The final step of purification consisted of size exclusion chromatography using a Superdex 75 column and 10 mM Tris- HCl, 20 mM NaCl based buffer for crystallization or PBS buffer for NMR based experiments. The correctly folded state and purity of the PD-L1 protein were checked by NMR and […]
The freshly purified protein was concentrated to 5 mg/mL and then mixed in a 1:3 molar ratio with an excess of the 2f inhibitor, finally the solution was centrifuged for 1 minute at max speed. The clarified solution was then used for screening using multiple available commercial screens. The diffraction quality crystals were obtained from a sitting drop set up at room temperature with a buffer containing 27 % w/v PEG 3350, 0.1 M Bis-Tris propane, pH 7.0 and 0.2 M Lithium sulfate. Crystals were cryo-protected using glycerol and flash frozen with liquid nitrogen.
The X-ray diffraction data were collected at the BL13 - XALOC beamline at ALBA (Barcelona, Spain).6The data were indexed, integrated, and scaled using XDS, SCALE, and Aimless.
7–9 The initial phase estimates was obtained by molecular replacement calculated in Phaser using PDB:5C3T as a model.10 The refinement was performed using CCP4cloud11 and verified using Coot .12–14 The structure was deposited in the Protein Data Bank with accession number 8R6Q. The protein-ligand interactions were assessed using PLIP server15 and visualized using PyMol (The PyMOL Molecular Graphics System, Version 2.0 Schrödinger, LLC).
4.6. Crystal structure determination for compound 2a
X-ray diffraction data for single crystals of compound 2a was collected using XtalLAB Synergy-S four-circle diffractometer with a mirror monochromator and a microfocus CuKα radiation source (λ = 1.5418 Å). The CryoStream cryostat system was used to allow low-temperature

T1 sequence (Q9NZQ7 19-238 limits assumed, one chain of several): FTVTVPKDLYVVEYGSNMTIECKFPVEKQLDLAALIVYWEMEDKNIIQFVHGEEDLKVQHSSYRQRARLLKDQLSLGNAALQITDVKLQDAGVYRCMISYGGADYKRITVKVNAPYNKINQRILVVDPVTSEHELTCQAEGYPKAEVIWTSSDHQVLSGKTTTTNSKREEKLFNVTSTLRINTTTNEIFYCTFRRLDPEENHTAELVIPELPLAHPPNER
T2 sequence (Q9NZQ7 19-290): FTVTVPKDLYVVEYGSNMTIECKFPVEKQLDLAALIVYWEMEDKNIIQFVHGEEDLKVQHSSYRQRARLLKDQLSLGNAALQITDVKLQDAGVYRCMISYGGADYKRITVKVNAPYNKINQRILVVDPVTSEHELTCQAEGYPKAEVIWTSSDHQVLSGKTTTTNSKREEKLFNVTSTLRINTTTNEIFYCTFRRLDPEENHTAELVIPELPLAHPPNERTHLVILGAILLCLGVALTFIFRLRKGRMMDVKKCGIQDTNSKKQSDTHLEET

| Compound | IC50 [1] | further results |
| --- | --- | --- |
| COc1cc(-c2cccc(-c3ccc4c(c3)OCCO4)c2Cl)ccc1CN1CCCC1C(=O)O (centres unmarked) [1a] | < 0.5 nM | – |
| COc1cc(-c2cccc(-c3ccc4c(c3)OCCO4)c2Cl)ccc1CN1CCCC1C(=O)NO (centres unmarked) [1b] | > 1000 nM | – |
| COc1cc(-c2cccc(-c3ccc4c(c3)OCCO4)c2Cl)ccc1CN1CCCC1C(=O)NN (centres unmarked) [1c] | 76.2 ± 2.35 nM | – |
| COc1cc(-c2cccc(-c3ccc4c(c3)OCCO4)c2Cl)ccc1CN1CCCC1C(=O)NN(C)C (centres unmarked) [1d] | < 0.5 nM | – |
| COc1cc(-c2cccc(-c3ccc4c(c3)OCCO4)c2Cl)ccc1CN1CCCC1C(=O)NCCN (centres unmarked) [1e] | < 0.5 nM | – |
| COc1cc(-c2cccc(-c3ccc4c(c3)OCCO4)c2Cl)ccc1CN1CCCC1C(=O)NCCO (centres unmarked) [1f] | < 0.5 nM | – |
| COc1cc(-c2cccc(-c3ccc4c(c3)OCCO4)c2Cl)ccc1CN1CCCC1C(=O)NC(CO)CO (centres unmarked) [1g] | < 0.5 nM | – |
| COc1cc(-c2cccc(-c3ccc4c(c3)OCCO4)c2Cl)ccc1CN1CCCC1C(=O)NC(CO)(CO)CO (centres unmarked) [1h] | < 0.5 nM | – |
| COc1cc(-c2cccc(-c3ccc4c(c3)OCCO4)c2Cl)ccc1CN1CCC(C(=O)O)C1 (centres unmarked) [2a] | 1.1 ± 0.07 nM | – |
| COc1cc(-c2cccc(-c3ccc4c(c3)OCCO4)c2Cl)ccc1CN1CCC(C(=O)NO)C1 (centres unmarked) [2b] | 0.94 ± 0.01 nM | activation of Jurkat-ECs (fold induction) ([2]; compound 1 μM): bioactivity was observed |
| COc1cc(-c2cccc(-c3ccc4c(c3)OCCO4)c2Cl)ccc1CN1CCC(C(=O)NN)C1 (centres unmarked) [2c] | < 0.5 nM | – |
| COc1cc(-c2cccc(-c3ccc4c(c3)OCCO4)c2Cl)ccc1CN1CCC(C(=O)NN(C)C)C1 (centres unmarked) [2d] | 12 ± 2.01 nM | activation of Jurkat-ECs (fold induction) ([2]; compound 6.4 μM): activity was retained; dose-dependent activation of Jurkat-ECs and toxicity [2]: highest dose-dependent activity and lowest toxicity |
| COc1cc(-c2cccc(-c3ccc4c(c3)OCCO4)c2Cl)ccc1CN1CCC(C(=O)NCCN)C1 (centres unmarked) [2e] | 4.94 ± 0.37 nM | activation of Jurkat-ECs (fold induction) ([2]; compound 1 μM): bioactivity was observed; activation of Jurkat-ECs (fold induction) ([2]; compound 6.4 μM, 6.4 µM): T cell activation dropped down and tox. |
| COc1cc(-c2cccc(-c3ccc4c(c3)OCCO4)c2Cl)ccc1CN1CCC(C(=O)NCCO)C1 (centres unmarked) [2f] | < 0.5 nM | dose-dependent activation of Jurkat-ECs and toxicity [2]: highest dose-dependent activity and lowest toxicity |
| COc1cc(-c2cccc(-c3ccc4c(c3)OCCO4)c2Cl)ccc1CN1CCC(C(=O)NC(CO)CO)C1 (centres unmarked) [2g] | < 0.5 nM | activation of Jurkat-ECs (fold induction) ([2]; compound 1 μM): bioactivity was observed; activation of Jurkat-ECs (fold induction) ([2]; compound 6.4 μM): activity was retained; dose-dependent activation of Jurkat-ECs and toxicity [2]: highest dose-dependent activity and lowest toxicity |
| COc1cc(-c2cccc(-c3ccc4c(c3)OCCO4)c2Cl)ccc1CN1CCC(C(=O)NC(CO)(CO)CO)C1 (centres unmarked) [2h] | < 0.5 nM | activation of Jurkat-ECs (fold induction) ([2]; compound 1 μM): bioactivity was observed; activation of Jurkat-ECs (fold induction) ([2]; compound 6.4 μM): T cell activation dropped down |
| COc1cc(-c2cccc(-c3ccc4c(c3)OCCO4)c2Cl)ccc1CN1CCCCC1C(=O)O (centres unmarked) [3a] | 0.58 ± 0.05 nM | – |
| COc1cc(-c2cccc(-c3ccc4c(c3)OCCO4)c2Cl)ccc1CN1CCCCC1C(=O)NN (centres unmarked) [3c] | 16.7 ± 1.63 nM | – |

| Compound | IC50 [1] | further results |
| --- | --- | --- |
| COc1cc(-c2cccc(-c3ccc4c(c3)OCCO4)c2Cl)ccc1CN1CCCCC1C(=O)NN(C)C (centres unmarked) [3d] | 56 ± 1.33 nM | – |
| COc1cc(-c2cccc(-c3ccc4c(c3)OCCO4)c2Cl)ccc1CN1CCCCC1C(=O)NCCO (centres unmarked) [3f] | 0.9 ± 0.05 nM | – |
| COc1cc(-c2cccc(-c3ccc4c(c3)OCCO4)c2Cl)ccc1CN1CCCCC1C(=O)NC(CO)CO (centres unmarked) [3g] | 63.6 ± 1.86 nM | – |
| COc1cc(-c2cccc(-c3ccc4c(c3)OCCO4)c2Cl)ccc1CN1CCCCC1C(=O)NC(CO)(CO)CO (centres unmarked) [3h] | 477 ± 83.5 nM | – |
| COc1cc(-c2cccc(-c3ccc4c(c3)OCCO4)c2Cl)ccc1CN1CCCC(C(=O)O)C1 (centres unmarked) [4a] | < 0.5 nM | – |
| COc1cc(-c2cccc(-c3ccc4c(c3)OCCO4)c2Cl)ccc1CN1CCCC(C(=O)NO)C1 (centres unmarked) [4b] | 1.09 ± 0.07 nM | – |
| COc1cc(-c2cccc(-c3ccc4c(c3)OCCO4)c2Cl)ccc1CN1CCCC(C(=O)NN)C1 (centres unmarked) [4c] | 79.9 ± 5.7 nM | – |
| COc1cc(-c2cccc(-c3ccc4c(c3)OCCO4)c2Cl)ccc1CN1CCCC(C(=O)NN(C)C)C1 (centres unmarked) [4d] | 37 ± 1.75 nM | – |
| COc1cc(-c2cccc(-c3ccc4c(c3)OCCO4)c2Cl)ccc1CN1CCCC(C(=O)NCCO)C1 (centres unmarked) [4f] | < 0.5 nM | – |
| COc1cc(-c2cccc(-c3ccc4c(c3)OCCO4)c2Cl)ccc1CN1CCCC(C(=O)NC(CO)(CO)CO)C1 (centres unmarked) [4h] | 19.3 ± 1.22 nM | – |
| COc1cc(-c2cccc(-c3ccc4c(c3)OCCO4)c2Cl)ccc1CN1CCC(C(=O)O)CC1 [5a] | < 0.5 nM | – |
| COc1cc(-c2cccc(-c3ccc4c(c3)OCCO4)c2Cl)ccc1CN1CCC(C(=O)NO)CC1 [5b] | 766 ± 71.5 nM | – |
| COc1cc(-c2cccc(-c3ccc4c(c3)OCCO4)c2Cl)ccc1CN1CCC(C(=O)NN)CC1 [5c] | 96.5 ± 2.71 nM | – |
| COc1cc(-c2cccc(-c3ccc4c(c3)OCCO4)c2Cl)ccc1CN1CCC(C(=O)NN(C)C)CC1 [5d] | < 0.5 nM | – |
| COc1cc(-c2cccc(-c3ccc4c(c3)OCCO4)c2Cl)ccc1CN1CCC(C(=O)NCCN)CC1 [5e] | < 0.5 nM | – |
| COc1cc(-c2cccc(-c3ccc4c(c3)OCCO4)c2Cl)ccc1CN1CCC(C(=O)NCCO)CC1 [5f] | 0.55 ± 0.03 nM | – |
| COc1cc(-c2cccc(-c3ccc4c(c3)OCCO4)c2Cl)ccc1CN1CCC(C(=O)NC(CO)CO)CC1 [5g] | < 0.5 nM | – |
| COc1cc(-c2cccc(-c3ccc4c(c3)OCCO4)c2Cl)ccc1CN1CCC(C(=O)NC(CO)(CO)CO)CC1 [5h] | < 0.5 nM | – |
